Tests used:
purified HLA DRB1*0405 = target: T1, purified HLA DRB1*0405 (Homo sapiens, UniProt P01903+P01911, A100R/A169T/D86S/F76Y/I96L/K127E/L162R/M171V/N62H/P40V/Q125Y/R42H/S133A/S149N/S66Y/V115G/V209L/W38E); test: HLA-DR radioligand binding inhibition assay, DRB1*0405; settings: read-out: IC50 nM purified HLA DRB1 *0405; purified HLA DRB1*0405
T1 construct: purified from EBV transformed homozygous cell lines or single MHC allele transfected 721.221, C1R, or fibroblast lines; made in house
Outline: (§1)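 Bound radioactivity is read after 3-hour capture of complexes in 0.05% NP40/PBS on antibody-coated plates. Binding reactions pair 1-10 nM labeled peptide with 1 μM to 1 nM HLA-DR for two days.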

purified HLA DRB1*0901 = target: T2, purified HLA DRB1*0901 (Homo sapiens, UniProt P01903+P01911, A100R/A103E/D57H/D86V/F55Y/F60I/F76Y/I96F/K127E/L162R/M171V/P40D/Q125H/Q99R/R33Q/R42F/S133A/S66N/T210M/V115G/W38K/Y107V/Y59G/Y89S); test: HLA-DR radioligand binding inhibition assay, DRB1*0901; settings: read-out: IC50 nM purified HLA DRB1 *0901; purified HLA DRB1*0901
T2 construct: purified from EBV transformed homozygous cell lines or single MHC allele transfected 721.221, C1R, or fibroblast lines; made in house
Protocol: Instead, wells of an opaque white 96-well Optiplate (Packard) are coated with 3 μg (100 μl@ 30 μg/ml) of HLA-specific antibody (Ab) that “capture” complexes of radiolabeled MHC and unlabeled peptide transferred from the molecular binding assay plate in 100 μl of 0.05% NP40/PBS. After a 3-hour incubation period, the supernatant is decanted and scintillation fluid (Microscint 20) added. Captured complexes are then measured on a microplate scintillation and luminescence counter (TopCount NXTTM; Packard).
HLA-DR purification. Fifteen distinct HLA-DR molecules were used in quantitative assays to measure the binding of peptides to solubilized HLA-DR molecules. […] Briefly, columns of inactivated Sepharose CL4B and Protein A Sepharose were used as pre-columns. HLA-DR molecules were captured by passage of lysates over LB3.1 monoclonal antibody (anti-HLA-DRA) columns. Antibody columns were washed with 10 mM Tris-HCL, pH8.0 with 1% (v/v) NP-40, followed by PBS containing 0.4% (w/v) n-octylglucoside.
Briefly, 1-10 nM of radiolabeled peptide was co-incubated for 2 days at either room temperature or 37° C. with 1 μM to 1 nM purified HLA-DR molecules in the presence of a cocktail of protease inhibitors. Assays were performed at various pH conditions, ranging from pH 4 to pH 7. […] After incubation, the percentage of HLA-DR-bound radioactivity is determined by capturing HLA-DR/peptide complexes on Optiplates (Packard Instruments, Meriden, Conn.) coated with the LB3.1 antibody and determining bound counts per minute using the TopCount microscintillation counter (Packard Instruments).

purified HLA DRB1*0101 = target: T3, purified HLA DRB1*0101 (Homo sapiens, UniProt P01903+P01911, A100R/D57E/F55L/F60I/F76Y/I96L/L162R/M171V/P40L/Q125E/R42F/V115G/Y59C); test: HLA-DR radioligand binding inhibition assay, DRB1*0101; settings: read-out: IC50 nM purified HLA DRB1 *0101; purified HLA DRB1*0101
T3 construct: purified from EBV transformed homozygous cell lines or single MHC allele transfected 721.221, C1R, or fibroblast lines; made in house
Outline: as §1

purified HLA DRB1*1302 = target: T4, purified HLA DRB1*1302 (Homo sapiens, UniProt P01903+P01911, A100E/A169T/K41T/L162R/M171V/P40S/Q125H/Q178H/Q39Y/Q99D/R42S/S66N/T262R/V115G/W38E/Y61H); test: HLA-DR radioligand binding inhibition assay, DRB1*1302
T4 construct: purified from EBV transformed homozygous cell lines or single MHC allele transfected 721.221, C1R, or fibroblast lines; made in house
Outline: as §1

[1] = tested on: 15 different HLA-DR molecules; test: HLA-DR binding assays, panel of 15 different HLA-DR molecules (breadth of binding); settings: number of the 15 HLA-DR molecules bound (binders: 1000 nM or better)
[2] = tested on: short term T cell lines from breast or ovarian cancer patients; test: IFN-γ ELISpot analysis of short term T cell lines (peptide versus protein fragment; natural processing); type: cell-based, human; settings: T cell lines respond to culture peptide and to protein fragment; FIGS. 5 and 6
Description: IFN-γ ELISpot analysis of short term T cell lines generated against HER-2/neu peptides, p53 (Panel A), p83 (Panel B), p88 (Panel C) and p885 (Panel D). […] Each bar is the mean (s.e.m.) of three replicates.
FIG. 6 is identical to FIG. 5 except that the results were obtained using IGFBP-2 derived helper epitopes.

[3] = tested on: peptide-specific T cells in PBMC; test: 10-day interferon-gamma ELIspot with PBMC of breast or ovarian cancer patients and healthy controls; type: cell-based, human; settings: fraction of breast or ovarian cancer patients with mean T cell values above cutoff (mean + 2 SD of healthy donors)
Description: Each panel represents a unique peptide and each data point is derived from one individual. The grey box (i.e. cutoff) delineates the region that constitutes the mean and two standard deviations calculated from the normal healthy individuals. The percentages represent the fraction of patients that had mean T cell values above the cutoff. The peptides that are circled are those in which a higher fraction of the patients responded compared to the normal healthy controls. These peptides are considered to be the best vaccine candidates. However, it is clear that the rigidness of this approach could potentially result in many false negatives. […] Despite this, we identified 5 candidates to move forward. The fidelity of this approach is evident from a prior study which has already shown that a HER-2/neu peptide, p884-899, which encompasses the binding motif of p885, is an HLA-DR4 epitope.
Enzyme-linked immunosorbent spot assay. A 10-day ELlspot for detecting low-frequency T cells was used to determine reactivity to the tumor antigen peptides (Table 1) as described (Knutson K L et al. J Clin Onc 2006;24: 4254-61). […] PMA/Ionomycin and the CEF pool were used as positive non-tumor related controls as previously described (Knutson, 2006).
Using predictive algorithms discussed above, candidate HLA-DR1-binding epitopes were identified. […] An interferon-gamma ELIspot assay was used to assess immunity to the indiscriminate binding peptides in 48 patients with either breast or ovarian cancer and 18 healthy controls.
Using an ELlspot assay with a limit of detection of approximately […], patient-derived PBMC were screened for reactivity against all of the HLA-DR binding peptides.

Row | IC50 (purified HLA DRB1*0405) [nM] | IC50 (purified HLA DRB1*0901) [nM] | IC50 (purified HLA DRB1*0101) [nM] | IC50 (purified HLA DRB1*1302) [nM] | Total XRN [1] | SMILES | naturally processed and presented antigen [2] | Percent of patients with responses [3] [%]
1 | 10500 | 5780 | 65 | 15 |  | CC[C@H](C)[C@H](NC(=O)[C@H](CCCCN)NC(=O)[C@@H](NC(=O)[C@H](Cc1c[nH]cn1)NC(=O)[C@H](CC(N)=O)NC(=O)[C@@H]1CCCN1C(=O)[C@H](CO)NC(=O)[C@H](CCCCN)NC(=O)[C@@H](NC(=O)[C@H](CC(C)C)NC(=O)[C@@H](NC(=O)[C@H](CC(N)=O)NC(=O)[C@H](CCCNC(=N)N)NC(=O)[C@H](C)N)C(C)C)C(C)C)C(C)C)C(=O)N[C@H](C(=O)O)[C@@H](C)O |  | 
2 |  |  |  |  | 12 | CC(C)C[C@H](NC(=O)[C@H](CO)NC(=O)[C@H](C)NC(=O)[C@H](CC(N)=O)NC(=O)[C@@H](NC(=O)[C@@H]1CCCN1C(=O)[C@H](CC(C)C)NC(=O)[C@H](Cc1ccc(O)cc1)NC(=O)[C@@H](NC(=O)[C@H](CC(C)C)NC(=O)[C@H](CCC(=O)O)NC(=O)[C@H](CC(C)C)NC(=O)[C@@H](N)CC(N)=O)[C@@H](C)O)[C@@H](C)O)C(=O)N[C@@H](CO)C(=O)N[C@@H](Cc1ccccc1)C(=O)O [Peptide 9019.0030] | naturally processed and presented antigens | 15
3 |  |  |  |  | 13 | CC[C@H](C)[C@H](NC(=O)[C@@H]1CCCN1)C(=O)N[C@@H](CCCCN)C(=O)N[C@@H](Cc1c[nH]c2ccccc12)C(=O)N[C@@H](CCSC)C(=O)N[C@@H](C)C(=O)N[C@@H](CC(C)C)C(=O)N[C@@H](CCC(=O)O)C(=O)N[C@@H](CO)C(=O)N[C@H](C(=O)N[C@@H](CC(C)C)C(=O)N[C@@H](CCCNC(=N)N)C(=O)N[C@@H](CCCNC(=N)N)C(=O)N[C@@H](CCCNC(=N)N)C(=O)N[C@@H](Cc1ccccc1)C(=O)O)[C@@H](C)CC [Peptide 9019.0087] | naturally processed and presented antigens | 25

Row | SMILES | IC50 (purified HLA DRB1*0405) [nM] | IC50 (purified HLA DRB1*0901) [nM] | IC50 (purified HLA DRB1*0101) [nM] | IC50 (purified HLA DRB1*1302) [nM] | Total XRN [1] | naturally processed and presented antigen [2] | Percent of patients with responses [3] [%]
4 | CC[C@H](C)[C@H](NC(=O)[C@H](Cc1c[nH]cn1)NC(=O)[C@H](CC(C)C)NC(=O)[C@H](CO)NC(=O)[C@H](Cc1ccc(O)cc1)NC(=O)[C@H](CC(C)C)NC(=O)[C@H](Cc1c[nH]cn1)NC(=O)[C@H](CCC(=O)O)NC(=O)[C@H](CC(C)C)NC(=O)[C@@H]1CCCN1C(=O)CNC(=O)[C@H](CCCNC(=N)N)NC(=O)[C@@H](N)CCC(=O)O)C(=O)N1CCC[C@H]1C(=O)N[C@@H](CC(N)=O)C(=O)O [Peptide 9019.0190, EROPLEHLYSLHIPN] |  |  |  |  | 8 | naturally processed peptides | 23

From US20140377340A1, “HLA-DR BINDING PEPTIDES AND THEIR USES” (priority 2007, published 2014)
